Source: patent US20250034173A1, “PYRIDO[4,3-D]PYRIMIDINE COMPOUNDS” (PFIZER INC., priority 2023, published 2025)

Experiments:
[1] = target: T1, KRAS G12C (Homo sapiens (Human), UniProt P01116, G12C); test: SPR binding affinity and kinetics, GDP-loaded KRAS G12C; details: GDP loaded protein, geomean
Excerpt: (§1) No additional regeneration was used.
(§2) Compound dissociation was monitored for at least 3600 seconds. […] No additional regeneration was used.
(§3) The adequateness of the fit was judged by c2 values and the randomness of residue distribution.

[2] = target: T2, KRAS Wild Type (Homo sapiens (Human), UniProt P01116); test: SPR binding affinity and kinetics, GTPγS-loaded KRAS Wild Type; details: GTPγS loaded protein, geomean
Outline: (§4)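 Fits to the SPR data were assessed through c2 and whether residues scattered randomly; dissociation phases ran ≥3600 seconds, regeneration omitted.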

[3] = target: T3, KRAS G12D (Homo sapiens (Human), UniProt P01116, G12D); test: SPR binding affinity and kinetics, GDP-loaded KRAS G12D; details: GDP loaded protein, geomean
Excerpt: as §1, §2, §3

[4] = system: SW620 (colorectal cancer cell line); test: KRAS Cell Titer Glo (CTG) cell proliferation assay, SW620; format: cell-based; details: Homo sapiens, SW-620, 168 h; SW620 cells, 7-day CTG, geomean IC50
Outline: (§5)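 Compounds pre-dispensed in 0.1% DMSO before seeding H358 (300 cells/well), SW620 (750) or PANC08.13 (600); 7-day exposure at 37 °C, 5% CO2. Viability by CellTiter-Glo luminescence after 15 min at room temperature. Percent effect normalised to DMSO (0%) and 1 uM trametinib (100%); geomean IC50.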

[5] = target: T3, KRAS G12D; test: SPR binding affinity and kinetics, GTPγS-loaded KRAS G12D; details: GTPγS loaded protein, geomean
Outline: as §4

[6] = target: T2, KRAS Wild Type; test: SPR binding affinity and kinetics, GDP-loaded KRAS Wild Type; details: GDP loaded protein, geomean
Excerpt: as §1, §2, §3

[7] = target: T4, KRAS G12V (Homo sapiens (Human), UniProt P01116, G12V); test: SPR binding affinity and kinetics, GTPγS-loaded KRAS G12V; details: GTPγS loaded protein, geomean
Outline: as §4

[8] = target: T4, KRAS G12V; test: SPR binding affinity and kinetics, GDP-loaded KRAS G12V; details: GDP loaded protein, geomean
Excerpt: as §1, §2, §3

[9] = system: PANC08.13 (pancreatic cancer cell line); test: KRAS Cell Titer Glo (CTG) cell proliferation assay, PANC08.13; format: cell-based; details: Homo sapiens, PANC-08-13, 168 h; PANC08.13 cells, 7-day CTG, geomean IC50
Outline: as §5

[10] = target: T1, KRAS G12C; test: SPR binding affinity and kinetics, GTPγS-loaded KRAS G12C; details: GTPγS loaded protein, geomean
Outline: as §4

[11] = system: H358 (non-small cell lung cancer cell line); test: KRAS Cell Titer Glo (CTG) cell proliferation assay, H358; format: cell-based; details: Homo sapiens, NCI-H358, 168 h; H358 cells, 7-day CTG, geomean IC50
Outline: as §5

[12] = target: NRAS Wild Type (Homo sapiens (Human), UniProt P01111); test: SPR binding affinity and kinetics, GTPγS-loaded NRAS Wild Type; details: GTPγS loaded protein, geomean
Excerpt: as §1, §2, §3

[13] = target: HRAS Wild Type (Homo sapiens (Human), UniProt P01112); test: SPR binding affinity and kinetics, GTPγS-loaded HRAS Wild Type; details: GTPγS loaded protein, geomean
Excerpt: as §1, §2, §3

T4 sequence (P01116 other isoform, or with tags, fused parts or gaps G12V): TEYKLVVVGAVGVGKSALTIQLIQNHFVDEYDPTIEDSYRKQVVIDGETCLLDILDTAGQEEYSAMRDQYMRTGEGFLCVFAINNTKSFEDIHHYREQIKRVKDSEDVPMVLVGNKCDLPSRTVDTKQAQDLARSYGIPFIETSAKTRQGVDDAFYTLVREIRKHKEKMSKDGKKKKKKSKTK
Sequence of NRAS Wild Type (P01111 2-185): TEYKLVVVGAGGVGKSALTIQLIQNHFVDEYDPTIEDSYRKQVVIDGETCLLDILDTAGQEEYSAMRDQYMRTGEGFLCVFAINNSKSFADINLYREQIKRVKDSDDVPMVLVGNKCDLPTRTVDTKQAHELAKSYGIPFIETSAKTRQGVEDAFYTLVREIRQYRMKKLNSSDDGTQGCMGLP
T1 sequence (P01116 other isoform, or with tags, fused parts or gaps G12C): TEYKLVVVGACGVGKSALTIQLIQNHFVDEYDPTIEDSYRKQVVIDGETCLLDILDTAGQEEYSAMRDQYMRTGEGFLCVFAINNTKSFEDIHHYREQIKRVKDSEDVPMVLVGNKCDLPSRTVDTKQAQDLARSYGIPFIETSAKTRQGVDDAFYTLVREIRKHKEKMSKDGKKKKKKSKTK
T2 sequence (P01116 other isoform, or with tags, fused parts or gaps): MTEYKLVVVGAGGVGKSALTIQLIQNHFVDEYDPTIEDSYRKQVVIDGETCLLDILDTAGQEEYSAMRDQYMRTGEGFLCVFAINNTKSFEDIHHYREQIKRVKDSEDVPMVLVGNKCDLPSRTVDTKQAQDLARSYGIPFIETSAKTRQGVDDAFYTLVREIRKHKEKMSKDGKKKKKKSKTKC
Sequence of HRAS Wild Type (P01112 2-184): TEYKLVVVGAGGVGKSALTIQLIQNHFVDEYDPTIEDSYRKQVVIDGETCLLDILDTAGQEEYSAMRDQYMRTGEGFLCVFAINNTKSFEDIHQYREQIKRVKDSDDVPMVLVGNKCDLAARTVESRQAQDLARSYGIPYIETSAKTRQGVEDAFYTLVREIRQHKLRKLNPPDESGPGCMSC
T3 sequence (P01116 other isoform, or with tags, fused parts or gaps G12D): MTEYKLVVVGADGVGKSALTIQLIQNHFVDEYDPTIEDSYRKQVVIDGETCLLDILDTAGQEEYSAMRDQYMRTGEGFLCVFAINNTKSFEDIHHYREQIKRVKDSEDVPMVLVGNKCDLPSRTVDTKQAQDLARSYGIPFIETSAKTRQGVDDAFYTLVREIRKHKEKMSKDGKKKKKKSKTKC

Structure (SMILES) | Kd [1] | Kd [2] | Kd [3] | IC50 [4] | Kd [5] | Kd [6] | Kd [7] | Kd [8] | IC50 [9] | Kd [10] | IC50 [11] | Kd [12] | Kd [13]
C=C1CN2CCC[C@@]2(COc2nc3c4c(nc(-c5c(C)ccc6[nH]ncc56)c(F)c4n2)OC[C@@H]2COCCCN32)C1 [Example 5, (8aS)-4-fluoro-2-{[(7aS)-2-methylidenetetrahydro-1H-pyrrolizin-7a(5H)-yl]methoxy}-5-(5-methyl-1H-indazol-4-yl)-8a,9,12,13-tetrahydro-8H,11H-7,10-dioxa-1,3,6,13a-tetraazanaphtho[1,8-ab]heptalene] | 1.95 nM | 1450 nM | 2.2 nM | 2680 nM | 1240 nM | 5.42 nM | 1430 nM | 2.76 nM | 1040 nM | 1560 nM | 2320 nM | – | –
Fc1c(-c2c(C3CC3)c(Cl)cc3[nH]ncc23)nc2c3c(nc(OC[C@@]45CCCN4CC(=C4COC4)C5)nc13)N1CCCOC[C@H]1CO2 [Example 41, (8aS)-5-(6-chloro-5-cyclopropyl-1H-indazol-4-yl)-4-fluoro-2-{[(7aS)-2-(oxetan-3-ylidene)tetrahydro-1H-pyrrolizin-7a(5H)-yl]methoxy}-8a,9,12,13-tetrahydro-8H,11H-7,10-dioxa-1,3,6,13a-tetraazanaphtho[1,8-ab]heptalene] | – | 5 nM | – | 36 nM | 2 nM | – | 4 nM | – | 5 nM | 4 nM | 25 nM | > 10000 nM | > 10000 nM
C=C1CN2CCC[C@@]2(COc2nc3c4c(nc(-c5c(C6CC6)c(Cl)cc6[nH]nc(Cl)c56)c(F)c4n2)OC[C@@H]2COCCCN32)C1 [Example 46, (8aS)-5-(3,6-dichloro-5-cyclopropyl-1H-indazol-4-yl)-4-fluoro-2-{[(7aS)-2-methylidenetetrahydro-1H-pyrrolizin-7a(5H)-yl]methoxy}-8a,9,12,13-tetrahydro-8H,11H-7,10-dioxa-1,3,6,13a-tetraazanaphtho[1,8-ab]heptalene] | – | 4 nM | – | 45 nM | 3 nM | – | 4 nM | – | 5 nM | 3 nM | 15 nM | > 10000 nM | > 10000 nM
C[C@@H]1CCCc2cc3[nH]ncc3c(-c3nc4c5c(nc(OC[C@@]67CCCN6CC(=C6COC6)C7)nc5c3F)N3CCCOC[C@H]3CO4)c21 [Example 47, (8aS)-4-fluoro-5-[(5R)-5-methyl-5,6,7,8-tetrahydro-1H-benzo[f]indazol-4-yl]-2-{[(7aS)-2-(oxetan-3-ylidene)tetrahydro-1H-pyrrolizin-7a(5H)-yl]methoxy}-8a,9,12,13-tetrahydro-8H,11H-7,10-dioxa-1,3,6,13a-tetraazanaphtho[1,8-ab]heptalene] | – | 3 nM | – | 11 nM | 2 nM | – | 4 nM | – | 10 nM | 4 nM | 14 nM | > 10000 nM | > 10000 nM
C/C=C1\CN2CCC[C@@]2(COc2nc3c4c(nc(-c5c6c(cc7[nH]ncc57)CCC[C@H]6C)c(F)c4n2)OC[C@@H]2COCCCN32)C1 [Example 53, (8aS)-2-{[(2Z,7aS)-2-ethylidenetetrahydro-1H-pyrrolizin-7a(5H)-yl]methoxy}-4-fluoro-5-[(5R)-5-methyl-5,6,7,8-tetrahydro-1H-benzo[f]indazol-4-yl]-8a,9,12,13-tetrahydro-8H,11H-7,10-dioxa-1,3,6,13a-tetraazanaphtho[1,8-ab]heptalene] | – | 1 nM | – | 4 nM | 1 nM | – | 2 nM | – | 5 nM | 1 nM | 8 nM | > 10000 nM | > 10000 nM
C[C@@H]1CCCc2cc3[nH]ncc3c(-c3nc4c5c(nc(OC[C@@]67CCCN6C/C(=C/F)C7)nc5c3F)N3CCCOC[C@H]3CO4)c21 [Example 55, (8aS)-4-fluoro-2-{[(2E,7aS)-2-(fluoromethylidene)tetrahydro-1H-pyrrolizin-7a(5H)-yl]methoxy}-5-[(5R)-5-methyl-5,6,7,8-tetrahydro-1H-benzo[f]indazol-4-yl]-8a,9,12,13-tetrahydro-8H,11H-7,10-dioxa-1,3,6,13a-tetraazanaphtho[1,8-ab]heptalene] | – | 3 nM | – | 6 nM | 2 nM | – | 2 nM | – | 13 nM | 1 nM | 24 nM | > 10000 nM | > 10000 nM

Further lines, results first:

Kd [1] | Kd [2] | Kd [3] | IC50 [4] | Kd [5] | Kd [6] | Kd [7] | Kd [8] | IC50 [9] | Kd [10] | IC50 [11] | Kd [12] | Kd [13] | Structure (SMILES)
> 10000 nM | > 1000 nM | > 10000 nM | > 9990 nM | > 1000 nM | > 10000 nM | > 1000 nM | > 10000 nM | > 9990 nM | > 1000 nM | > 9990 nM | – | – | Fc1c(-c2cccc3[nH]ncc23)nc2c3c(nc(OC[C@@]45CCCN4C[C@H](F)C5)nc13)N1CCCOC[C@H]1CO2 [Example 3, (8aS)-4-fluoro-2-{[(2R,7aS)-2-fluorotetrahydro-1H-pyrrolizin-7a(5H)-yl]methoxy}-5-(1H-indazol-4-yl)-8a,9,12,13-tetrahydro-8H,11H-7,10-dioxa-1,3,6,13a-tetraazanaphtho[1,8-ab]heptalene]
4.29 nM | 2290 nM | 1.36 nM | 3380 nM | 2030 nM | 7.72 nM | 1590 nM | 2.6 nM | 299 nM | 2270 nM | 534 nM | – | – | Fc1c(-c2c(Cl)c(Cl)cc3[nH]ncc23)nc2c3c(nc(OC[C@@]45CCCN4C[C@H](F)C5)nc13)N1CCCC[C@H]1CO2 [Example 4, (8aS)-5-(5,6-dichloro-1H-indazol-4-yl)-4-fluoro-2-{[(2R,7aS)-2-fluorotetrahydro-1H-pyrrolizin-7a(5H)-yl]methoxy}-8,8a,9,10,11,12-hexahydro-7-oxa-1,3,6,12a-tetraazabenzo[4,5]cyclohepta[1,2,3-de]naphthalene]
– | 7 nM | – | 31 nM | 3 nM | – | 9 nM | – | 4 nM | 5 nM | 15 nM | > 10000 nM | > 10000 nM | C[C@@H]1CCCc2cc3[nH]ncc3c(-c3nc4c5c(nc(OC[C@@]67CCCN6C[C@H](F)C7)nc5c3F)N3CCCOC[C@H]3CO4)c21 [Example 36, (8aS)-4-fluoro-2-{[(2R,7aS)-2-fluorotetrahydro-1H-pyrrolizin-7a(5H)-yl]methoxy}-5-[(5R)-5-methyl-5,6,7,8-tetrahydro-1H-benzo[f]indazol-4-yl]-8a,9,12,13-tetrahydro-8H,11H-7,10-dioxa-1,3,6,13a-tetraazanaphtho[1,8-ab]heptalene]
– | 3 nM | – | 25 nM | 2 nM | – | 4 nM | – | 4 nM | 3 nM | 9 nM | > 10000 nM | > 10000 nM | COC/C=C1\CN2CCC[C@@]2(COc2nc3c4c(nc(-c5c6c(cc7[nH]ncc57)CCC[C@H]6C)c(F)c4n2)OC[C@@H]2COCCCN32)C1 [Example 37, (8aS)-4-fluoro-2-{[(2Z,7aS)-2-(2-methoxyethylidene)tetrahydro-1H-pyrrolizin-7a(5H)-yl]methoxy}-5-[(5R)-5-methyl-5,6,7,8-tetrahydro-1H-benzo[f]indazol-4-yl]-8a,9,12,13-tetrahydro-8H,11H-7,10-dioxa-1,3,6,13a-tetraazanaphtho[1,8-ab]heptalene]
– | 2 nM | – | 7 nM | 1 nM | – | 2 nM | – | < 1 nM | 2 nM | 10 nM | > 10000 nM | > 10000 nM | C=C1CN2CCC[C@@]2(COc2nc3c4c(nc(-c5c(C6(C)CC6)c(Cl)cc6[nH]ncc56)c(F)c4n2)OC[C@@H]2COCCCN32)C1 [Example 39, (8aS)-5-[6-chloro-5-(1-methylcyclopropyl)-1H-indazol-4-yl]-4-fluoro-2-{[(7aS)-2-methylidenetetrahydro-1H-pyrrolizin-7a(5H)-yl]methoxy}-8a,9,12,13-tetrahydro-8H,11H-7,10-dioxa-1,3,6,13a-tetraazanaphtho[1,8-ab]heptalene]
